ChEMBL document CHEMBL1201862, “PubChem BioAssay data set” (2004)
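Method: 48-hour compound exposure of cells in 96-well plates, five concentrations, linear interpolation of endpoints. At the GI50, growth is halved.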 Activity calls are given as the source filed them. Cut-off read from the data, not from the text of the source: active = GI50 up to about 1.1 µM and inactive = higher.

Assays:
Assay in all cases: NCI anticancer screen, dose series, 48 h
786-0 = tested on: 786-0
ACHN = tested on: ACHN
CAKI-1 = tested on: CAKI-1
HCC 2998 = tested on: HCC 2998
HCT-116 = tested on: HCT-116
IGROV-1 = tested on: IGROV-1
K562 = tested on: K562
LOX IMVI = tested on: LOX IMVI
NCI-H226 = tested on: NCI-H226
NCI-H23 = tested on: NCI-H23
SF-295 = tested on: SF-295
SK-MEL-2 = tested on: SK-MEL-2
SNB-19 = tested on: SNB-19
SW-620 = tested on: SW-620
TK-10 = tested on: TK-10
U-251 = tested on: U-251
UACC-257 = tested on: UACC-257
UO-31 = tested on: UO-31
T47D = tested on: T47D
BT-549 = tested on: BT-549

Row | SMILES | GI50 (786-0) | GI50 (ACHN) | GI50 (CAKI-1) | GI50 (HCC 2998) | GI50 (HCT-116) | GI50 (IGROV-1) | GI50 (K562) | GI50 (LOX IMVI) | GI50 (NCI-H226) | GI50 (NCI-H23) | GI50 (SF-295) | GI50 (SK-MEL-2) | GI50 (SNB-19) | GI50 (SW-620) | GI50 (TK-10) | GI50 (U-251) | GI50 (UACC-257) | GI50 (UO-31) | GI50 (T47D) | GI50 (BT-549)
1 | C/C(CC(=O)Nc1ccc(NC(=O)C/C(C)=N\NC(N)=O)cc1)=N/NC(N)=O | > 68.9 µM (inactive) | 99.8 µM (inactive) | > 100 µM (inactive) | > 100 µM (inactive) | > 68.9 µM (inactive) | > 100 µM (inactive) | 52.7 µM (inactive) | > 42.5 µM (inactive) | > 100 µM (inactive) | 98.4 µM (inactive) | > 100 µM (inactive) | > 95.3 µM (inactive) | > 100 µM (inactive) | > 100 µM (inactive) | > 68.7 µM (inactive) | > 78 µM (inactive) | > 100 µM (inactive) | > 85.1 µM (inactive) |  | 
2 | CN(C)CCNC(=O)c1cccc2[nH]c(-c3ccccc3)nc12 | 36.3 µM (inactive) | 15.3 µM (inactive) | 24.7 µM (inactive) | 15.3 µM (inactive) | 9.73 µM (inactive) | 21.7 µM (inactive) | 26.4 µM (inactive) | 15.6 µM (inactive) | 16.4 µM (inactive) | 17.4 µM (inactive) | 25.2 µM (inactive) | 18.5 µM (inactive) | 32.5 µM (inactive) | 13.1 µM (inactive) | 18.5 µM (inactive) | 25.4 µM (inactive) | 16.9 µM (inactive) | 12.8 µM (inactive) |  | 
3 | O=C(CSc1nnc(Cc2ccccc2)o1)Nc1cccc(Cl)c1 | 96.8 µM (inactive) | 46.9 µM (inactive) | 92.5 µM (inactive) | 96.6 µM (inactive) | > 100 µM (inactive) | > 100 µM (inactive) | 46.6 µM (inactive) | 64.4 µM (inactive) | > 100 µM (inactive) | 66.2 µM (inactive) | 68.7 µM (inactive) | 70.8 µM (inactive) | > 100 µM (inactive) | > 100 µM (inactive) | > 100 µM (inactive) | > 100 µM (inactive) | > 100 µM (inactive) | > 100 µM (inactive) |  | 
4 | CC1C[C@@H]2C(=O)NC(=O)[C@@H]2c2c1c1ccccc1n2C (stereo partly specified) | > 100 µM (inactive) |  | > 100 µM (inactive) | > 100 µM (inactive) |  | > 100 µM (inactive) | > 100 µM (inactive) | > 100 µM (inactive) | > 100 µM (inactive) | > 100 µM (inactive) | > 100 µM (inactive) | > 100 µM (inactive) | > 100 µM (inactive) | > 100 µM (inactive) | > 100 µM (inactive) | > 100 µM (inactive) | > 100 µM (inactive) | > 100 µM (inactive) |  | 
5 | Nc1ccc2ncc(Nc3ccc(Cl)c(Cl)c3)nc2c1 | 39.6 µM (inactive) | 16.9 µM (inactive) | 23.4 µM (inactive) | 17.6 µM (inactive) | 21.2 µM (inactive) |  | 18.1 µM (inactive) | 21.6 µM (inactive) | 20.8 µM (inactive) | 18.7 µM (inactive) | 20 µM (inactive) | 26.4 µM (inactive) | 24.5 µM (inactive) | 35.2 µM (inactive) | 70.6 µM (inactive) | 33.7 µM (inactive) | 19.4 µM (inactive) | 19.7 µM (inactive) |  | 
6 | COc1cc(C=O)cc(/C=N/c2ccccn2)c1O | 7.36 µM (inactive) | 2.34 µM (inactive) | 2.94 µM (inactive) | 46.1 µM (inactive) | 35.4 µM (inactive) |  | 61.1 µM (inactive) | 14.1 µM (inactive) | 4.84 µM (inactive) | > 100 µM (inactive) | 5.47 µM (inactive) | 2.57 µM (inactive) | 17.4 µM (inactive) | 31.6 µM (inactive) | 79.4 µM (inactive) | 13 µM (inactive) | 8.59 µM (inactive) | 3.34 µM (inactive) | 53.3 µM (inactive) | 
7 | CC(C)(C)N1NC1C1NN1C(C)(C)C (stereo unspecified) | > 100 µM (inactive) | > 100 µM (inactive) | > 100 µM (inactive) | > 100 µM (inactive) | > 100 µM (inactive) | > 100 µM (inactive) | > 100 µM (inactive) | > 100 µM (inactive) | > 100 µM (inactive) | > 100 µM (inactive) | > 100 µM (inactive) | > 100 µM (inactive) | > 100 µM (inactive) | > 100 µM (inactive) | > 100 µM (inactive) | > 100 µM (inactive) | > 100 µM (inactive) | > 100 µM (inactive) | > 100 µM (inactive) | 
8 | COc1ccc(NC(=O)N(C)CC2(O)CCC(C(C)(C)C)CC2)cc1 (stereo unspecified) | > 100 µM (inactive) | > 100 µM (inactive) | < 0.01 µM (active) |  | 83.4 µM (inactive) | > 100 µM (inactive) | 66.2 µM (inactive) | 25.2 µM (inactive) |  | 99.3 µM (inactive) | 29 µM (inactive) | 63.8 µM (inactive) | > 100 µM (inactive) | > 100 µM (inactive) | 37 µM (inactive) | > 100 µM (inactive) | 33.9 µM (inactive) | 30.6 µM (inactive) |  | 63.4 µM (inactive)
